Laboratory results taken from patent publication US12617762B2, “Carboxy derivatives with antiinflamatory properties” (Sitryx Therapeutics Limited, priority 2019, dated 2026).
Where a name gives a salt, the structure may show the parent alone. Read-outs that look alike come from different tables or passages of the source.

How the values were obtained:
[1] = Hepatocyte stability assay, human; type: in vitro ADME; details: human, hepatocytes; for hepatocyte CLint at 10 μM: Hepatocyte stability Clint; for half-life at 10 μM: Hepatocyte stability T½
How it was run: (§1)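 Cells and buffer-only plates are preincubated 10 min at 37° C; 10 μM test compound is then added to hepatocytes (0.5×10^6 cells/mL) and sampled to 60 min. Aliquots are crashed into acetonitrile, spun, and measured by LC-MS/MS to calculate intrinsic clearance from the decline of parent.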

[2] = tested on: IL-6 cytokine output from THP-1s; assay: THP-1 AlphaLISA IL-6 cytokine inhibition assay; type: cell-based; details: Homo sapiens, LPS then nigericin
Protocol: The cytokine inhibition profiles of compounds of formula (I) were determined in a differentiated THP-1 cell assay. All assays were performed in RPMI-1640 growth medium (Gibco), supplemented with 10% fetal bovine serum (FBS; Gibco), 1% penicillin-streptomycin and 1% sodium pyruvate unless specified otherwise. The IL-1β cytokine inhibition assay was run in a background of differentiated THP-1 cells as described below. All reagents described were from Sigma-Aldrich unless specified otherwise. Compounds were prepared as 10 mM DMSO stocks.
THP-1 cells were expanded as a suspension up to 80% confluence in appropriate growth medium. Cells were harvested, suspended, and treated with an appropriate concentration of phorbol 12-myristate 13-acetate (PMA) over a 72 hr period (37° C./5% CO2).
Following 72 hrs of THP-1 cell incubation, cellular medium was removed and replaced with fresh growth media containing 1% of FBS. Working concentrations of compounds were prepared separately in 10% FBS treated growth medium and pre-incubated with the cells for 30 minutes (37° C./5% CO2). Following the 30 minute compound pre-incubation, THP-1s were treated with an appropriate concentration of LPS and the cells were subsequently incubated for a 24 hr period (37° C./5% CO2). An appropriate final concentration of Nigericin was then dispensed into the THP-1 plates and incubated for 1 hour (37° C./5% CO2) before THP-1 supernatants were harvested and collected in separate polypropylene 96-well holding plates.
Reagents from an IL-1β and IL-6 commercial kit (Perkin Elmer) were prepared and run according to the manufacturer's instructions. Subsequently, fluorescence signal detection in a microplate reader was measured (EnVision® Multilabel Reader, Perkin Elmer).
Percentage inhibition was calculated per cytokine by normalising the sample data to the high and low controls used within each plate (+/− LPS respectively).

[3] = tested on: IL-1β cytokine output from THP-1s; assay: THP-1 AlphaLISA IL-1β cytokine inhibition assay; type: cell-based; details: for IC50: Homo sapiens; for IL-1β lowering, result in words: THP-1 IL-1β assay
How it was run: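 THP-1 cells differentiated with PMA for 72 h, pre-incubated with compound 30 min, then LPS-primed 24 h and Nigericin-stimulated 1 h (37° C./5% CO2). Supernatant IL-1β measured by AlphaLISA; percentage inhibition normalised to +LPS (high) and −LPS (low) plate controls.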

[4] = Hepatocyte stability assay, mouse; type: in vitro ADME; details: mouse, hepatocytes; for hepatocyte CLint at 10 μM: Hepatocyte stability Clint; for half-life at 10 μM: Hepatocyte stability T½
How it was run: as §1

[5] = tested on: NRF2 (nuclear factor erythroid 2-related factor 2); assay: NRF2 +/-GSH activation assay (DiscoverX PathHunter NRF2 translocation kit, U2OS cells); type: cell-based
How it was run: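 U2OS PathHunter eXpress cells, 24 h post-plating, treated with compound ±GSH (+GSH arm: 30 min compound–GSH pre-incubation, 6 mM working GSH), then 6 h at 37 °C. NRF2 nuclear translocation read by enzyme-fragment-complementation chemiluminescence; % activation normalised to DMF high and untreated low controls.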

[6] = THP-1, differentiated THP-1 cells
[7] = THP-1, differentiated THP-1 cells, LPS then nigericin
[8] = +GSH, 30 minute compound-GSH pre-incubation, read-out: NRF2 activation +GSH EC50
[9] = +GSH, normalised to DMF high control
[10] = −GSH, U2OS PathHunter cells, 6 hours compound treatment, read-out: NRF2 activation −GSH EC50
[11] = −GSH, normalised to DMF high control
[12] = THP-1, Table 3, head to head comparison of exo vs endo double bond compounds

Row | SMILES | hepatocyte CLint at 10 μM [1] [µL/min/1e6 cells] | half-life at 10 μM [1] [min] | IC50 [2, 6] [µM] | IC50 [3, 7] [µM] | hepatocyte CLint at 10 μM [4] [µL/min/1e6 cells] | half-life at 10 μM [4] [min] | EC50 [5, 8] [µM] | NRF2 activation +GSH Emax [5, 9] [%] | EC50 [5, 10] [µM] | NRF2 activation −GSH Emax [5, 11] [%] | IC50 ([2]; differentiated THP-1 cells) [µM] | IC50 [3, 12] [µM] | IL-1β lowering, result in words [3] | EC50 ([5]; −GSH, Table 5 exo vs endo comparison, read-out: −GSH EC50) [µM] | −GSH Emax ([5]; −GSH, normalised to DMF high control, Table 5 exo vs endo comparison) [%]
1 | C=C(Cc1nc(C(F)(F)c2ccc(C(F)(F)F)cc2)no1)C(=O)O [Example 92, 2-((3-(difluoro(4-(trifluoromethyl)phenyl)methyl)-1,2,4-oxadiazol-5-yl)methyl)acrylic acid] | < 3 | > 460 | 19.9 | 6.7 | 23 | 84 |  |  |  |  |  |  |  |  | 
2 | C=C(Cc1cccc(Cc2ccc(Cl)cc2)n1)C(=O)O [Example 171, 2-((6-(4-chlorobenzyl)pyridin-2-yl)methyl)acrylic acid trifluoroacetic acid salt] |  |  | > 100 | > 100 |  |  | > 100 | 0 | > 100 | 5 |  |  |  |  | 
3 | C=C(Cc1nc(-c2ccc(Cl)cc2)c(CCCC)o1)C(=O)O [Example 109, 2-((5-butyl-4-(4-chlorophenyl)oxazol-2-yl)methyl)acrylic acid] | 20 | 79 | 10.6 | > 31.6 | 61 | 28 |  |  |  |  |  |  |  |  | 
4 | C=C(Cc1nc(C2(c3cc(Cl)c(Br)c(Cl)c3)CC2)no1)C(=O)O [Example 176, 2-((3-(1-(4-bromo-3,5-dichlorophenyl)cyclopropyl)-1,2,4-oxadiazol-5-yl)methyl)acrylic acid] |  |  |  | 3.2 |  |  |  |  | 5.4 | 222 | 7.6 |  |  |  | 
5 | CCCCCCCCc1noc(/C=C(\C)C(=O)O)n1 [Example 166, (E)-2-methyl-3-(3-octyl-1,2,4-oxadiazol-5-yl)acrylic acid] | 260 | 6 |  | > 31.6 | 204 | 7 |  |  |  |  | 31.5 | > 31.6 |  |  | 
6 | C=C(Cc1nc(-c2ccc(C(F)(F)CC)cc2)no1)C(=O)O [Example 71, 2-((3-(4-(1,1-difluoropropyl)phenyl)-1,2,4-oxadiazol-5-yl)methyl)acrylic acid] |  |  | 8.3 | 54.9 |  |  | 37.1 | 146 | 28.8 | 178 |  |  |  |  | 
7 | C=C(Cc1nc(C(C)(C)CCCCCC)no1)C(=O)O [Example 26, 2-((3-(2-methyloctan-2-yl)-1,2,4-oxadiazol-5-yl)methyl)acrylic acid] |  |  | 22.6 | 36.3 |  |  | 35.6 | 137 | 27.3 | 205 |  |  |  |  | 
8 | C=C(Cc1nc(CC2CCCCC2)no1)C(=O)O [Example 32, 2-((3-(cyclohexylmethyl)-1,2,4-oxadiazol-5-yl)methyl)acrylic acid] |  |  | > 100 | > 100 |  |  | > 100 | 35 | 50.1 | 46 |  |  | not effective |  | 
9 | C=C(Cc1nc(C2(c3ccc(C)c(Cl)c3)CC2)no1)C(=O)O [Example 141, 2-((3-(1-(3-chloro-4-methylphenyl)cyclopropyl)-1,2,4-oxadiazol-5-yl)methyl)acrylic acid] |  |  |  | > 56.2 |  |  | 20.1 | 100 | 16.7 | 177 | 32.4 |  |  |  | 
10 | C=C(Cc1ncc(CCCCCCCC)s1)C(=O)O [Example 55, 2-((5-octylthiazol-2-yl)methyl)acrylic acid] |  |  | 4.2 | 14.9 |  |  | 17.8 | 163 | 13.3 | 276 |  |  |  |  | 
11 | C=C(C(=O)O)C1(c2nc(C3(c4ccc(C(F)(F)F)cc4)CC3)no2)CC1 [Example 156, 2-(1-(3-(1-(4-(trifluoromethyl)phenyl)cyclopropyl)-1,2,4-oxadiazol-5-yl)cyclopropyl)acrylic acid] |  |  |  | 5.3 |  |  |  | −16.4 | > 100 | 0 | 55.9 |  |  |  | 
12 | C/C(=C\c1nc(C2(c3ccc(S(F)(F)(F)(F)F)cc3)CC2)no1)C(=O)O [Example 169] |  |  |  | > 31.6 |  |  | > 100 | 15.4 | > 100 | 43 | 20.2 | > 31.6 |  | > 100 | 43
13 | C#CCCCCCCc1noc(CC(=C)C(=O)O)n1 [Example 35, 2-((3-(oct-7-yn-1-yl)-1,2,4-oxadiazol-5-yl)methyl)acrylic acid] |  |  | 34.6 | > 100 |  |  | 48.9 | 55 | 43.6 | 91 |  |  | not effective |  | 
14 | C=C(C(=O)O)C(C)c1nc(C2(c3ccc(C(F)(F)F)cc3)CC2)no1 (centres unmarked) [Example 174, 2-methylene-3-(3-(1-(4-(trifluoromethyl)phenyl)cyclopropyl)-1,2,4-oxadiazol-5-yl)butanoic acid] |  |  |  | 4.2 |  |  | > 100 | 1.8 | > 100 | 24 | > 100 |  |  |  | 
15 | C=C(C(=O)O)C1(c2nc(C(F)(F)c3ccc(C(F)(F)F)cc3)no2)CC1 [Example 173, 2-(1-(3-(difluoro(4-(trifluoromethyl)phenyl)methyl)-1,2,4-oxadiazol-5-yl)cyclopropyl)acrylic acid] |  |  |  | 7.6 |  |  | 61.1 | 2.1 | 52.5 | 64 | > 100 |  |  |  | 
16 | C=C(Cc1nc(CCCCCCCC(F)F)no1)C(=O)O [Example 58, 2-((3-(8,8-difluorooctyl)-1,2,4-oxadiazol-5-yl)methyl)acrylic acid] |  |  | 16 | 36.9 |  |  | 30.6 | 105 | 26.4 | 149 |  |  |  |  | 
17 | C=C(Cc1nc(Cc2ccc(C3(C(F)(F)F)CC3)cc2)no1)C(=O)O [Example 48, 2-((3-(4-(1-(trifluoromethyl)cyclopropyl)benzyl)-1,2,4-oxadiazol-5-yl)methyl)acrylic acid] |  |  | 38.5 | 40.2 |  |  | 50.3 | 61 | 31 | 120 |  |  |  |  | 
18 | C=C(Cc1nc(CCC#CCCCC)no1)C(=O)O [Example 57, 2-((3-(oct-3-yn-1-yl)-1,2,4-oxadiazol-5-yl)methyl)acrylic acid] |  |  | 24.1 | > 100 |  |  | 49.9 | 56 | 41.1 | 102 |  |  | not effective |  | 
19 | C=C(Cc1cccc(C2(c3ccc(Cl)cc3)CC2)n1)C(=O)O [Example 175, 2-((6-(1-(4-chlorophenyl)cyclopropyl)pyridin-2-yl)methyl)acrylic acid] |  |  |  | 62.2 |  |  | > 100 | 4.0 | > 54.8 | 43 | 40.6 |  |  |  | 
20 | C=C(Cc1nc(CCCCCC(F)(F)CC(F)(F)F)no1)C(=O)O [Example 87, 2-((3-(6,6,8,8,8-pentafluorooctyl)-1,2,4-oxadiazol-5-yl)methyl)acrylic acid] |  |  | 31.7 | > 100 |  |  | 48.6 | 70 | 41.4 | 95 |  |  | not effective |  | 
